What all share (format): biochemical
One assay concerns the target Abl (h) (Homo sapiens, UniProt P00519). The assay can be described thus: Abl human kinase assay (glass-fiber filter). The note with it: test concentration of 10^−6M; for inhibition at 1 µM: read-out: C1 score (inhibition of Abl human). The method, then: (§1) In the glass-fiber filter technology the activity of the kinase of interest is measured using an appropriate substrate that is incubated with the aforementioned kinase protein in the presence of (^33P) radiolabeled ATP. (^33P) Phosphorylation of the substrate is subsequently measured as radioactivity bound on a glass fiber-filter.
(§2) All kinases are pre-diluted to a 10× working concentration prior to addition into the assay. The composition of the dilution buffer for each kinase is detailed below.
(§3) (specific activity approx. 500 cpm/pmol, concentration as required). The reaction is initiated by the addition of the MgATP mix. After incubation for 40 minutes at room temperature, the reaction is stopped by the addition of 5 μl of a 3% phosphoric acid solution. 10 μl of the reaction is then spotted onto a P30 filtermat and washed three times for 5 minutes in 75 mM phosphoric acid and once in methanol prior to drying and scintillation counting.

Another assay has as its target cSRC (h) (Homo sapiens, UniProt P12931). Briefly: cSRC human kinase assay (glass-fiber filter). The note with it: test concentration of 10^−6M; for inhibition at 1 µM: read-out: C3 score (inhibition of cSRC human). The method, then: (§4) The in vitro inhibition of a panel of kinases was assessed using either the glass-fiber filter technology as described by Davies, S. P. et al., Biochem J. […] In the glass-fiber filter technology the activity of the kinase of interest is measured using an appropriate substrate that is incubated with the aforementioned kinase protein in the presence of (^33P) radiolabeled ATP. (^33P) Phosphorylation of the substrate is subsequently measured as radioactivity bound on a glass fiber-filter. All kinases are pre-diluted to a 10× working concentration prior to addition into the assay. The composition of the dilution buffer for each kinase is detailed below. […] The reaction is initiated by the addition of the MgATP mix. […] 10 μl of the reaction is then spotted onto a P30 filtermat and washed three times for 5 minutes in 75 mM phosphoric acid and once in methanol prior to drying and scintillation counting.

For a further assay, the target named is Fes (h) (Homo sapiens, UniProt P07332). The assay can be described thus: Fes human kinase assay (glass-fiber filter). The conditions noted are these: test concentration of 10^−6M; read-out: C4 score (inhibition of Fes human). As for the experimental part: as §1, §2
as §3, with “In a final reaction volume of 25 μl, Fes (h) (5-10 mU) is incubated with 8 mM MOPS pH 7.0, 0.2 mM EDTA, 0.1 mg/ml poly(Glu, Tyr) 4:1, 10 mM MgAcetate and [γ-^33P-ATP] (specific” for “(specific”, “Filtermat A” for “P30 filtermat”

Another assay concerns the target Flt3 (h) (Homo sapiens, UniProt P36888). The assay can be described thus: Flt3 human kinase assay (glass-fiber filter). The conditions noted are these: test concentration of 10^−6M; for inhibition at 1 µM: read-out: C6 score (inhibition of Flt3 human). As for the experimental part:
(§5) The in vitro inhibition of a panel of kinases was assessed using either the glass-fiber filter technology as described by Davies, S. P. et al., Biochem J. (2000), 351; p. 95-105.
as §1, §2
In a final reaction volume of 25 μl, Flt3 (h) (5-10 mU) is incubated with 8 mM MOPS pH 7.0, 0.2 mM EDTA, 50 μM […], 10 mM MgAcetate and [γ-^33P-ATP] (specific activity approx. 500 cpm/pmol, concentration as required). The reaction is initiated by the addition of the MgATP mix. After incubation for 40 minutes at room temperature, the reaction is stopped by the addition of 5 μl of a 3% phosphoric acid solution. 10 μl of the reaction is then spotted onto a P30 filtermat and washed three times for 5 minutes in 75 mM phosphoric acid and once in methanol prior to drying and scintillation counting.

Another assay has as its target Fms (h) (Homo sapiens, UniProt P07333). Briefly: Fms human kinase assay (glass-fiber filter). The conditions noted are these: test concentration of 10^−6M; read-out: C7 score (inhibition of Fms human). The method, then:
as §5, §1, §2
In a final reaction volume of 25 μl, Fms (h) (5-10 mU) is incubated with 8 mM MOPS pH 7.0, 0.2 mM EDTA, 250 μM […], 10 mM MgAcetate and [γ-^33P-ATP] (specific activity approx. 500 cpm/pmol, concentration as required). The reaction is initiated by the addition of the MgATP mix. After incubation for 40 minutes at room temperature, the reaction is stopped by the addition of 5 μl of a 3% phosphoric acid solution. 10 μl of the reaction is then spotted onto a P30 filtermat and washed three times for 5 minutes in 75 mM phosphoric acid and once in methanol prior to drying and scintillation counting.

The next assay addresses GSK3B (h) (Homo sapiens, UniProt P49841). The assay can be described thus: GSK3β human kinase assay (glass-fiber filter). The conditions noted are these: test concentration of 10^−6M; for inhibition at 1 µM: read-out: C8 score (inhibition of GSK3β human). The method, then: as §5, §1, §2
In a final reaction volume of 25 μl, GSK3B (h) (5-10 mU) is incubated with 8 mM MOPS pH 7.0, 0.2 mM EDTA, 20 μM […](p)EDEEE (phospho GS2 peptide), 10 mM MgAcetate and [γ-^33P-ATP] (specific activity approx. 500 cpm/pmol, concentration as required). The reaction is initiated by the addition of the MgATP mix. After incubation for 40 minutes at room temperature, the reaction is stopped by the addition of 5 μl of a 3% phosphoric acid solution. 10 μl of the reaction is then spotted onto a P30 filtermat and washed three times for 5 minutes in 50 mM phosphoric acid and once in methanol prior to drying and scintillation counting.

For the next assay, the target named is Lck (h) (Homo sapiens, UniProt P06239). The assay can be described thus: Lck human kinase assay (glass-fiber filter). The note with it: test concentration of 10^−6M; for inhibition at 1 µM: read-out: C9 score (inhibition of Lck human). As for the experimental part: as §4, with “below. [table]” for “below.”
Lck (h), sequence (P06239 whole entry): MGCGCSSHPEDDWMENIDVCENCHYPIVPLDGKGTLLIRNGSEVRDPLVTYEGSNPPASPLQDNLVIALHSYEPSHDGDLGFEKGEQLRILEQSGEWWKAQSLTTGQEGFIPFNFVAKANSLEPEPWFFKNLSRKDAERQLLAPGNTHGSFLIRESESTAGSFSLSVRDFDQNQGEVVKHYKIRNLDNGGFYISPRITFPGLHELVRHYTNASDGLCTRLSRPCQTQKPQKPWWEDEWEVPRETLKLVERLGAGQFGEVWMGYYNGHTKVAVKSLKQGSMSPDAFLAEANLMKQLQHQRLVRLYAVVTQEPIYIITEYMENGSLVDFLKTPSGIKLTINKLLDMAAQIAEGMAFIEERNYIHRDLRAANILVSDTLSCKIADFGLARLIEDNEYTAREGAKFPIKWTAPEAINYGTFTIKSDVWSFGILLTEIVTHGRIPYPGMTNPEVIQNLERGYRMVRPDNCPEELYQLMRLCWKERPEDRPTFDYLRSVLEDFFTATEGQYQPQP
Another assay concerns the target Lyn (h) (Homo sapiens, UniProt P07948). Briefly: Lyn human kinase assay (glass-fiber filter). The note with it: test concentration of 10^−6M; for inhibition at 1 µM: read-out: C10 score (inhibition of Lyn human). The method, then: as §1, §2
In a final reaction volume of […] (h) (5-10 mU) is incubated with 50 mM Tris pH 7.5, 0.1 mM EGTA, 0.1 mM Na3VO4, 0.1% O-mercaptoethanol, 0.1 mg/ml poly(Glu, Tyr) 4:1, 10 mM MgAcetate and [γ-^33P-ATP] (specific activity approx. 500 cpm/pmol, concentration as required). The reaction is initiated by the addition of the MgATP mix. After incubation for 40 minutes at room temperature, the reaction is stopped by the addition of 5 μl of a 3% phosphoric acid solution. 10 μl of the reaction is then spotted onto a Filtennat A and washed three times for 5 minutes in 75 mM phosphoric acid and once in methanol prior to drying and scintillation counting.

The target of a further assay is Yes (h) (Homo sapiens, UniProt P07947). Briefly: Yes human kinase assay (glass-fiber filter). The conditions noted are these: test concentration of 10^−6M; for inhibition at 1 µM: read-out: C11 score (inhibition of Yes human). The method, then:
as §1, §2
(§6) In a final reaction volume of 25 μl, Yes (h) (5-10 mU) is incubated with 8 mM MOPS pH 7.0, 0.2 mM EDTA, 0.1 mg/ml poly(Glu, Tyr) 4:1, 10 mM MgAcetate and [γ-^33P-ATP] (specific activity approx. 500 cpm/μmol, concentration as required). The reaction is initiated by the addition of the MgATP mix. After incubation for 40 minutes at room temperature, the reaction is stopped by the addition of 5 μl of a 3% phosphoric acid solution. 10 μl of the reaction is then spotted onto a Filtermat A and washed three times for 5 minutes in 75 mM phosphoric acid and once in methanol prior to drying and scintillation counting.

The next assay addresses EGFR (h) (Homo sapiens, UniProt P00533). The assay can be described thus: EGFR human kinase assay (glass-fiber filter). The conditions noted are these: test concentration of 10^−6M. As for the experimental part: as §1, §2
as §6, with “EGFR” for “Yes”, “EDTA, 10 mM MnCl2,” for “EDTA,”, “cpm/pmol,” for “cpm/μmol,”

A value given as a limit tells only on which side of the number the result lay.

For orientation: inhibition means the relative decrease from the control value, in per cent.

Abl (h), sequence (P00519 whole entry): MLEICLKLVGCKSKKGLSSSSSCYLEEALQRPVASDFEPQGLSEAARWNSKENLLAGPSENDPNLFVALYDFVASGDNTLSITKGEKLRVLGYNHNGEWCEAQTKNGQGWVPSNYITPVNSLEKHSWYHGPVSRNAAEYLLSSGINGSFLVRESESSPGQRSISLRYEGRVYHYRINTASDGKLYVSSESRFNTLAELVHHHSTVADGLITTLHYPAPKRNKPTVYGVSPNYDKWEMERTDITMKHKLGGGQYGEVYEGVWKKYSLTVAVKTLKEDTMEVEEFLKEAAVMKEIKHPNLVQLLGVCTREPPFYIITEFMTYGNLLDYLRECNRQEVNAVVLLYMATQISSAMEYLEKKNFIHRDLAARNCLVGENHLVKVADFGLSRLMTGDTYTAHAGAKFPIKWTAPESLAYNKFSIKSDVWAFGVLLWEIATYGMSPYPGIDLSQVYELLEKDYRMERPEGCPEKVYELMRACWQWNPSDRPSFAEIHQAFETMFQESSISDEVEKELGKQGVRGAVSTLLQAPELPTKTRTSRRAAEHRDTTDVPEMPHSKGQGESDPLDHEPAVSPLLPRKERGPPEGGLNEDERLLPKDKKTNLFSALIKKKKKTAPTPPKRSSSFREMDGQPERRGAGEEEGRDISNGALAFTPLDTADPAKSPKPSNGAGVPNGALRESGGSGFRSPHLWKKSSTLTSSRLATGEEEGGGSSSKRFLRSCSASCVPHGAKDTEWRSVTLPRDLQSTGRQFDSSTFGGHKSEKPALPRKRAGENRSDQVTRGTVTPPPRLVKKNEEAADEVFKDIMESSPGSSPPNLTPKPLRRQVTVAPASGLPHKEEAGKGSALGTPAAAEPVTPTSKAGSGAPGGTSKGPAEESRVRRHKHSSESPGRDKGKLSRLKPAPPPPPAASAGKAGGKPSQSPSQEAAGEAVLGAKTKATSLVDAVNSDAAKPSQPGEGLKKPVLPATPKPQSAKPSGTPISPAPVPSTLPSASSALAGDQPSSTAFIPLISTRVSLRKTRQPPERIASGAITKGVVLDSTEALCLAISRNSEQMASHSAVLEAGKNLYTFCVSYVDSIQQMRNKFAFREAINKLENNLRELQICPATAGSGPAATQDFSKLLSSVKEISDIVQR
Flt3 (h), sequence (P36888 27-993): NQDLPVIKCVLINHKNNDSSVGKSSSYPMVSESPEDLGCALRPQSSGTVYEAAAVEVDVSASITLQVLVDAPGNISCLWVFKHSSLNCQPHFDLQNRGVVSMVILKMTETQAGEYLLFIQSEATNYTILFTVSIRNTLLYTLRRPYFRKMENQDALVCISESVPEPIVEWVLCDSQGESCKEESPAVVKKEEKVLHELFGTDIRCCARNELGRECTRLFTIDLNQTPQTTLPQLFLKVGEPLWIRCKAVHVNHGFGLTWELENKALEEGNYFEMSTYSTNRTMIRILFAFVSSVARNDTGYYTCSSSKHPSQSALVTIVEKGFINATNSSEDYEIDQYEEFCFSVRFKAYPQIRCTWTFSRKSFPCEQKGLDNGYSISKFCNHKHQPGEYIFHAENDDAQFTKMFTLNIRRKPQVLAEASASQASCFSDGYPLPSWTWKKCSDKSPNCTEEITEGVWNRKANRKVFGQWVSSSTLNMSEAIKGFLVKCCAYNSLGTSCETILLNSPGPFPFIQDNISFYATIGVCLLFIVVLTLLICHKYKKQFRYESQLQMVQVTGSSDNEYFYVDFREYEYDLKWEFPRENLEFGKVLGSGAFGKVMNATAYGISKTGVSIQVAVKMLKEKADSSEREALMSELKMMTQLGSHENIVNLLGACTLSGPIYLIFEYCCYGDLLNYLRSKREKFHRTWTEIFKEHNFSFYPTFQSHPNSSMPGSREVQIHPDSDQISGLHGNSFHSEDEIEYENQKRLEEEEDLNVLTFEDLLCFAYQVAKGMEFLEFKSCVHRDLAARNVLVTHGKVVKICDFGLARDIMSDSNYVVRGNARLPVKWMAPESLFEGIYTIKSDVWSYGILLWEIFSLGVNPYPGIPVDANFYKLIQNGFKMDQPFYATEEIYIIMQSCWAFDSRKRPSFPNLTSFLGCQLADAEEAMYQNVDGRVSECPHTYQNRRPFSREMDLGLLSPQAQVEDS
GSK3B (h), sequence (P49841 whole entry): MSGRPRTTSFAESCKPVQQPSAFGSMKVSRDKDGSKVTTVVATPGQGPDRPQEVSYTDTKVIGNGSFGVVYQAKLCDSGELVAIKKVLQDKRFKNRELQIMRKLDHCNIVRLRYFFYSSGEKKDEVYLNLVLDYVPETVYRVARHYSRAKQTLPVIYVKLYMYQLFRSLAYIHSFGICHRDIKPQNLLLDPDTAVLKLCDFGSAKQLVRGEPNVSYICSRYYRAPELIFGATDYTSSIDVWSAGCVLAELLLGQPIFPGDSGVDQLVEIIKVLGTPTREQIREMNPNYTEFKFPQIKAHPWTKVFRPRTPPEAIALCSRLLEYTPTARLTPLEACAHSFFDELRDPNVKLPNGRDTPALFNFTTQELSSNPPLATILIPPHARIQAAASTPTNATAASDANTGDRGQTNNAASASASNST
EGFR (h), sequence (P00533 25-1210): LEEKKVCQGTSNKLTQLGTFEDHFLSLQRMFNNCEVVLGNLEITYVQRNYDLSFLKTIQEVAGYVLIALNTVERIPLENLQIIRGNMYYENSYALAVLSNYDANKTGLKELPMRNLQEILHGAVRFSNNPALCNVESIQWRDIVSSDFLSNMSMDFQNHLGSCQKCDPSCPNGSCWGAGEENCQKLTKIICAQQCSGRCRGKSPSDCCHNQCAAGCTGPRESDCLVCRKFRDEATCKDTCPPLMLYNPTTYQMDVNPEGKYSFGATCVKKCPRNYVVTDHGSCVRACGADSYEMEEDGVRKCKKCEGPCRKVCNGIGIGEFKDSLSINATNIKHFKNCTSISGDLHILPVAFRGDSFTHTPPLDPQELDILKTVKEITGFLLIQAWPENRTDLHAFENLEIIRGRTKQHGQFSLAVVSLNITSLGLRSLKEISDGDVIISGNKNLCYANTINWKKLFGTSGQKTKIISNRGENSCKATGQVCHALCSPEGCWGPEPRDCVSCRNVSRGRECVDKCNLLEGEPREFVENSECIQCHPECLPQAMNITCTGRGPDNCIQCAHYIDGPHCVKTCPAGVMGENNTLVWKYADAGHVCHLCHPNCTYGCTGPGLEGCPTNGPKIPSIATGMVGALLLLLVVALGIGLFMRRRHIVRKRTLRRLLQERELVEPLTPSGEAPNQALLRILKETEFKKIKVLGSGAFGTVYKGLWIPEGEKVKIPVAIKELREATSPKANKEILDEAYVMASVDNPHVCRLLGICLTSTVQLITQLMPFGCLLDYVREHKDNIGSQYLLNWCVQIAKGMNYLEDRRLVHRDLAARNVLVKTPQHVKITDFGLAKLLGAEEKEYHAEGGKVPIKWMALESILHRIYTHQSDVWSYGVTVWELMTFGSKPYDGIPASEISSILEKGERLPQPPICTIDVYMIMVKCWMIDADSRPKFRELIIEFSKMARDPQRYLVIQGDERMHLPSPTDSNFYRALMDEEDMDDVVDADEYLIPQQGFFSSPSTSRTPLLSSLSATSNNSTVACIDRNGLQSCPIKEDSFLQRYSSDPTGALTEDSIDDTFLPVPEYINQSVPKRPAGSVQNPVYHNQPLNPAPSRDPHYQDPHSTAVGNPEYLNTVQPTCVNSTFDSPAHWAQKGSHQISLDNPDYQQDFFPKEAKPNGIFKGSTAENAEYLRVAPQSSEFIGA
Lyn (h), sequence (P07948 whole entry): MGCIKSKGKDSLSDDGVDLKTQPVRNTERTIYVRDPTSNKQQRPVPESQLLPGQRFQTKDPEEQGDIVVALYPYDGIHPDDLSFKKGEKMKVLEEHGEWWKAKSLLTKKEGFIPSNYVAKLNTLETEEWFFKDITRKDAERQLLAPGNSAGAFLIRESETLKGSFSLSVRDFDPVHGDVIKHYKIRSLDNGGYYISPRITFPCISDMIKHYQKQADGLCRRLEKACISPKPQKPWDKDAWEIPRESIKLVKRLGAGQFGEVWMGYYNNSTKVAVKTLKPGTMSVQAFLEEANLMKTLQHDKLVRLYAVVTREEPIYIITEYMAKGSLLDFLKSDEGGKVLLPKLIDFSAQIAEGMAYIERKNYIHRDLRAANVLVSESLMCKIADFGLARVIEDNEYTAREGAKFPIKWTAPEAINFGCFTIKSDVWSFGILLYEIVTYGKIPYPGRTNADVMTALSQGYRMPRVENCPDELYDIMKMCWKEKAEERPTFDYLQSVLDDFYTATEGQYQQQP

Take `N#Cc1cnc2nc1Nc1cccc(c1)OCCCCOc1cccc(c1)N2` [Compound 2, 14,19-dioxa-2,4,8,26-tetraazatetracyclo[18.3.1.1˜3,7˜.1˜9,13˜]hexacosa-1(24),3,5,7(26),9,11,13(25),20,22-nonaene-6-carbonitrile]: the inhibition at 1 µM at Abl (h) is 10 to 30%; on cSRC (h), 30 to 60%; at Fes (h), 10 to 30%; at Flt3 (h), more than 80%; at Fms (h), 30 to 60%; at GSK3B (h), 60 to 80%. Also, the figures for the inhibition at 1 µM on Lck (h), on Lyn (h) and at Yes (h) were 30 to 60%, 10 to 30% and 30 to 60%, respectively.
On to `O=C1NCCCCOc2cccc(c2)Nc2ccnc(n2)Nc2cccc1c2` [Compound 19, 14-oxa-2,4,8,19,27-pentaazatetracyclo[19.3.1.1~3,7~.1~9,13~]heptacosa-1(25),3,5,7(27),9,11,13(26),21,23-nonaen-20-one], for which the inhibition at 1 µM on Abl (h) was 10 to 30%; at cSRC (h) it was 10 to 30%; on EGFR (h) (read-out: C4 score (inhibition of EGFR human)), 10 to 30%; on Flt3 (h), 30 to 60%; at Fms (h), 10 to 30%; on GSK3B (h), 10 to 30%. Besides, the inhibition at 1 µM on Lck (h) fell in the range of 30 to 60%; on Lyn (h), 10 to 30%; at Yes (h), 30 to 60%.
As for `COc1cc2cc(c1)OCCCCCCOc1ccc(Br)cc1Nc1cc(ncn1)N2` [Compound 40, 1H,7H-6,2: 8,12-dimetheno-13,20,1,3,5,7-benzodioxatetraazacyclodocosine, 23-bromo-14,15,16,17,18,19-hexahydro-10-methoxy-], the “C4 score (inhibition of EGFR human)” value on EGFR (h) was 4 (Score 4=>80% inhibition). Besides, the “C6 score (inhibition of Flt3 human)” value at Flt3 (h) was 1 (Score 1=10-30% inhibition). At GSK3B (h), the “C8 score (inhibition of GSK3β human)” value is 1 (Score 1=10-30% inhibition). Moreover, at Lck (h), the “C9 score (inhibition of Lck human)” value is 1 (Score 1=10-30% inhibition). For the same compound, the “C11 score (inhibition of Yes human)” value at Yes (h) is 4 (Score 4=>80% inhibition).
Turning to `COc1ccc2cc1OCCNC(=O)[C@@H]1CCCN1Cc1cc(F)c(Cl)cc1Nc1nc(ncc1C#N)N2` [Compound 31, 21,17-metheno-15,11-nitrilo-16H-pyrrolo[2,1-r][13,1,5,7,16,19]benzoxapentaazacyclodocosine-12-carbonitrile, 8-chloro-7-fluoro-1,2,3,5,10,23,24,25,26,26a-decahydro-20-methoxy-26-oxo-, (26aS)-], at Abl (h), the “C1 score (inhibition of Abl human)” value is reported as 2 (Score 2=30-60% inhibition). Further, the “C3 score (inhibition of cSRC human)” value on cSRC (h) is 2 (Score 2=30-60% inhibition). Moreover, the “C4 score (inhibition of EGFR human)” value at EGFR (h) is on record as 2 (Score 2=30-60% inhibition). In addition, at Flt3 (h), the “C6 score (inhibition of Flt3 human)” value is on record as 2 (Score 2=30-60% inhibition). The “C8 score (inhibition of GSK3β human)” value at GSK3B (h) was 1 (Score 1=10-30% inhibition). Further, on Lck (h), the “C9 score (inhibition of Lck human)” value is reported as 3 (Score 3=60-80% inhibition). Besides, the “C10 score (inhibition of Lyn human)” value at Lyn (h) was 4 (Score 4=>80% inhibition). In addition, the “C11 score (inhibition of Yes human)” value at Yes (h) is reported as 4 (Score 4=>80% inhibition).
